# Source: publication PMC5849685, “Molecular basis of an agarose metabolic pathway acquired by a human intestinal symbiont” (Nature Communications, 2018)
# What was measured:
# Assay type in all cases: biochemical
# GH2C = target: T1, GH2C (Bacteroides uniformis, UniProt A0A2D0TCC9); test: TLC product analysis; conditions: 2 uM enzyme, 2.5 mM A3, 20 mM Tris pH 8.0, 0.5 M NaCl, 37 C, 2 h
# T1 construct: nucleotides 76-2547 of the gene (signal peptide removed; about residues 26-848), N-terminal His6 tag with thrombin site, pET28a, E. coli BL21 Star (DE3)
# T1 sequence (A0A2D0TCC9 4-826): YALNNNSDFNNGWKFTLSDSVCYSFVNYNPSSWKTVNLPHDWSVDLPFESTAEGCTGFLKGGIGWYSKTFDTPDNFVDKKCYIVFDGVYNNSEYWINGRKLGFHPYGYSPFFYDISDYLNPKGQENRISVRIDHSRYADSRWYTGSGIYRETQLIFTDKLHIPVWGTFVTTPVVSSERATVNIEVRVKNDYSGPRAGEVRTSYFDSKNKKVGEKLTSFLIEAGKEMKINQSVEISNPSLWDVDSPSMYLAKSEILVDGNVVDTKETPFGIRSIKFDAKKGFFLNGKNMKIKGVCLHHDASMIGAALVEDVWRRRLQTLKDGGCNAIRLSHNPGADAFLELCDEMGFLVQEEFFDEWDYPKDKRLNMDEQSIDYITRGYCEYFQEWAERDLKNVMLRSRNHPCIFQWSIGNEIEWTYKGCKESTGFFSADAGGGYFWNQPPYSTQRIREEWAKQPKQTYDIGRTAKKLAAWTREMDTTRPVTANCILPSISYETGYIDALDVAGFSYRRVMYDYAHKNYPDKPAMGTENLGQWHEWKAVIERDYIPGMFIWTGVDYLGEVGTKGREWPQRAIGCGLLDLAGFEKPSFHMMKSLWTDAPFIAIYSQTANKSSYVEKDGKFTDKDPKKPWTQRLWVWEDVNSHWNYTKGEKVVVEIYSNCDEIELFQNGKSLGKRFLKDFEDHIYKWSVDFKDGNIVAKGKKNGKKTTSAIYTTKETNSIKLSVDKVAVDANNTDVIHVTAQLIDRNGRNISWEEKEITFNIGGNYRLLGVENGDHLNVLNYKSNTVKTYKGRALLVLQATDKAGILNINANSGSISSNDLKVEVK
# GH117B = target: T2, GH117B (Bacteroides uniformis, UniProt A0A2D0TCD6); test: TLC product analysis; conditions: 0.5 uM enzyme, 0.5 mg/ml N2, 20 mM Tris pH 8.0, 0.5 M NaCl, 37 C, 24 h
# T2 construct: nucleotides 76-1209 of the gene (signal peptide removed; about residues 26-402), N-terminal His6 tag with thrombin site, pET28a, E. coli BL21 Star (DE3); homodimer
# T2 sequence (A0A2D0TCD6 4-380): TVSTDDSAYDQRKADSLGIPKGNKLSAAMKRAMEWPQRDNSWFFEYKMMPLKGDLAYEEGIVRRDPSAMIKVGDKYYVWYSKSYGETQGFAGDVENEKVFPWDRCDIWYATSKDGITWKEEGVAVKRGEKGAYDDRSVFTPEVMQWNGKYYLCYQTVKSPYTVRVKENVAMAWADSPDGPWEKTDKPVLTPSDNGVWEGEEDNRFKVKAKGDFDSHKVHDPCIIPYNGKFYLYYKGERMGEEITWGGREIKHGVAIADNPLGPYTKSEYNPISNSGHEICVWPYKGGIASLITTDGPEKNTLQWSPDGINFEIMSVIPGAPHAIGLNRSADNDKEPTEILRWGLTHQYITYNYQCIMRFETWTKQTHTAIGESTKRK
# GH86 = target: T3, GH86 (Bacteroides uniformis, UniProt A0A2D0TCD3); test: FACE product analysis; conditions: 20 mM Tris pH 8.0, 0.5 M NaCl, 37 C, overnight
# T3 construct: nucleotides 61-1941 of the gene (signal peptide removed; about residues 21-646), N-terminal His6 tag with thrombin site, pET28a, E. coli BL21 Star (DE3)
# T3 sequence (A0A2D0TCD3 4-629): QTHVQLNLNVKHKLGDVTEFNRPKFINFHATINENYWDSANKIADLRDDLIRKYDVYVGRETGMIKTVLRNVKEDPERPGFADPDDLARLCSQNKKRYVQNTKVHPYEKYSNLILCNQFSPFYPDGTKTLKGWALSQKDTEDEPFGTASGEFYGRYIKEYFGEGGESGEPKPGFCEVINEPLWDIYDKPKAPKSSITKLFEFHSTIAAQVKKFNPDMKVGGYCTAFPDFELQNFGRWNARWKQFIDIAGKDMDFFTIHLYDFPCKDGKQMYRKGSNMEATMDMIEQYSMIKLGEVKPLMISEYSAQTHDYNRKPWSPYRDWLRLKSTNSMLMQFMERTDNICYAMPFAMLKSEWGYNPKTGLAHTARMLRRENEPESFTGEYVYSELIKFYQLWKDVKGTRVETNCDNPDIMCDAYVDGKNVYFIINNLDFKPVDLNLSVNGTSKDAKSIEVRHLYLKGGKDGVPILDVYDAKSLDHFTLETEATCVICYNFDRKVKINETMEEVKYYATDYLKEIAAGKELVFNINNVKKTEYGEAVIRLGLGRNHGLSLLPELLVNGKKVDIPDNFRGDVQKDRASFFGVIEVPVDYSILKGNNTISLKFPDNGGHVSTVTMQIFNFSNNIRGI
# GH16B = target: T4, GH16B (Bacteroides uniformis, UniProt A0A2D0TCD1); test: FACE product analysis; conditions: 20 mM Tris pH 8.0, 0.5 M NaCl, 37 C, overnight
# T4 construct: nucleotides 67-1029 of the gene (signal peptide removed; about residues 23-342), N-terminal His6 tag with thrombin site, pET28a, E. coli BL21 Star (DE3)
# T4 sequence (A0A2D0TCD1 4-323): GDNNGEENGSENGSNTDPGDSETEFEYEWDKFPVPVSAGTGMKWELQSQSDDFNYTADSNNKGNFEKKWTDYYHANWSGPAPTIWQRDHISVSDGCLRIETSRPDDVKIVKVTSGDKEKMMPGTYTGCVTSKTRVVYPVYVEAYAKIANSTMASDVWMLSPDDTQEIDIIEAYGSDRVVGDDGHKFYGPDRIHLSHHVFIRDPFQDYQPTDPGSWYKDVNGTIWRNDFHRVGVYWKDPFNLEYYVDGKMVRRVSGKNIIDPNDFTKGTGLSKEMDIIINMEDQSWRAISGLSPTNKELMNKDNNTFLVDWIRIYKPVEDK
structure (smiles),measurement,setting,value
"OC[C@H]1O[C@@H](O[C@H]2[C@H]3OC[C@@H]2O[C@@H](O[C@H]2[C@@H](O)[C@@H](CO)OC(O)[C@@H]2O)[C@H]3O)[C@H](O)[C@@H](O)[C@H]1O (stereo partly drawn) [A3, agarotriose]",TLC product analysis,GH2C,GH2C was able to hydrolyze A3
"OC[C@H]1OC(O)[C@H](O)[C@@H](O[C@@H]2O[C@H]3CO[C@@H]([C@@H]2O)[C@@H]3O)[C@H]1O (stereo partly drawn) [N2, neoagarobiose]",TLC product analysis,GH117B,GAL and AHG released from N2 by GH117B
"OC[C@H]1O[C@@H](O[C@H]2[C@H]3OC[C@@H]2O[C@@H](O[C@H]2[C@@H](O)[C@@H](CO)O[C@@H](O[C@H]4[C@H]5OC[C@@H]4O[C@@H](O[C@H]4[C@@H](O)[C@@H](CO)OC(O)[C@@H]4O)[C@H]5O)[C@@H]2O)[C@H]3O)[C@H](O)[C@@H](O[C@@H]2O[C@H]3CO[C@@H]([C@@H]2O)[C@@H]3O)[C@H]1O (stereo partly drawn) [N6, neoagarohexaose]",FACE product analysis,GH86,GH86 was able to digest neoagarooctaose (N8) and neoagarohexaose (N6) to N2
same,FACE product analysis,GH16B; weak activity,"GH16B predominantly generated N4 from N8, N2 and N4 from N6"
"OC[C@H]1O[C@@H](O[C@H]2[C@H]3OC[C@@H]2O[C@@H](O[C@H]2[C@@H](O)[C@@H](CO)O[C@@H](O[C@H]4[C@H]5OC[C@@H]4O[C@@H](O[C@H]4[C@@H](O)[C@@H](CO)O[C@@H](O[C@H]6[C@H]7OC[C@@H]6O[C@@H](O[C@H]6[C@@H](O)[C@@H](CO)OC(O)[C@@H]6O)[C@H]7O)[C@@H]4O)[C@H]5O)[C@@H]2O)[C@H]3O)[C@H](O)[C@@H](O[C@@H]2O[C@H]3CO[C@@H]([C@@H]2O)[C@@H]3O)[C@H]1O (stereo partly drawn) [N8, neoagarooctaose]",FACE product analysis,GH86,GH86 was able to digest neoagarooctaose (N8) and neoagarohexaose (N6) to N2
same,FACE product analysis,GH16B,"GH16B predominantly generated N4 from N8, N2 and N4 from N6"
